Results as given in PMC6934184, “Selective DNA-PKcs inhibition extends the therapeutic index of localized radiotherapy and chemotherapy” (The Journal of Clinical Investigation, 2019).

Target: T1, SLK (Homo sapiens, UniProt Q9H2G2)
T1 construct: purchased Thermo Fisher Scientific (Life Technologies) SelectScreen
Experiment: SelectScreen LanthaScreen
Type: binding
Details: read-out: % displacement
In short: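 NU5455 was profiled across the SelectScreen Broad panel of kinase activity and binding assays. Z'LYTE reactions such as CSF1R ran at apparent Km ATP, while the Adapta CAMK1 assay used ATP listed as 10. Values are given as percent.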

T1 sequence (Q9H2G2 whole entry): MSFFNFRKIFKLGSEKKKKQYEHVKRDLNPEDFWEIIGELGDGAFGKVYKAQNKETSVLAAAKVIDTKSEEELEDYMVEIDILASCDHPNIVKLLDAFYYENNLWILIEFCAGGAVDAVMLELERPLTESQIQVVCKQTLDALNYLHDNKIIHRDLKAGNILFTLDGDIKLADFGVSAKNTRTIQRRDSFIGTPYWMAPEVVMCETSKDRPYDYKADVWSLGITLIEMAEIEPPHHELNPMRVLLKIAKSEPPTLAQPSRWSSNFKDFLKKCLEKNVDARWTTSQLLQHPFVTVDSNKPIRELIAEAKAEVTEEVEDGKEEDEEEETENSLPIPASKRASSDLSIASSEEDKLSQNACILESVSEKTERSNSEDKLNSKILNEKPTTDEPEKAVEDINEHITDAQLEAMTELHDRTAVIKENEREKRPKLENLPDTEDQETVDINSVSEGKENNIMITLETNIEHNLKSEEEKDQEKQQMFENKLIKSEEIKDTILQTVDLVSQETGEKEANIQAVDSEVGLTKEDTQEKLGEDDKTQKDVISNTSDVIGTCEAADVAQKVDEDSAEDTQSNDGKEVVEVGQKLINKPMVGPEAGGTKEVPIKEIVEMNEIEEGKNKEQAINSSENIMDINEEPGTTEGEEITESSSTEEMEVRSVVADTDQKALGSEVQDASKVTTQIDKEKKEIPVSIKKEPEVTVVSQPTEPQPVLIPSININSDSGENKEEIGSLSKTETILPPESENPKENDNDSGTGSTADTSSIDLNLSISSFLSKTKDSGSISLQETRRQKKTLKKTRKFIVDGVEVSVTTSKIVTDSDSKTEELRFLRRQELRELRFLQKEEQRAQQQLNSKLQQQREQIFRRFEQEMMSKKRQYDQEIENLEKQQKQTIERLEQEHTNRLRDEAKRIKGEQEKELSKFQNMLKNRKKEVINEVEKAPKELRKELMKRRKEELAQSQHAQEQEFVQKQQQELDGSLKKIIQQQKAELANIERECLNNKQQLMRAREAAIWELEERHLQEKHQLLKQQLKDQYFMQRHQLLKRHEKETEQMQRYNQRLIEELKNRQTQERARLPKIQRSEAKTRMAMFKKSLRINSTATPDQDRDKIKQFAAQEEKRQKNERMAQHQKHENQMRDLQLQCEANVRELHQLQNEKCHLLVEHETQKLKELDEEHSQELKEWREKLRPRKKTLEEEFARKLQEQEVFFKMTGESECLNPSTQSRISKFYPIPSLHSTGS

CN(C(=O)CN1CCOCC1)c1ccc2sc3c(-c4cccc5c(=O)cc(N6CC7CCC(C6)O7)oc45)cccc3c2c1 [NU5455]
inhibition at 1 µM: 1.5%
